# Source: patent US20210255193A1, “LYSINE REACTIVE PROBES AND USES THEREOF” (The Scripps Research Institute, priority 2017, published 2021)
# Assays:
# HK1 = molecular target: T1, HK1 (Homo sapiens, UniProt P19367); experiment: direct labeling of recombinantly expressed proteins by gel-based ABPP (WT vs lysine mutant); format: binding; conditions: HK1 K510, KR mutant; 10 μM probe, 1 h
# T1 construct: Flag; expressed in transfected cells; host or cells: HEK 293T
# T1 sequence (P19367 1-917): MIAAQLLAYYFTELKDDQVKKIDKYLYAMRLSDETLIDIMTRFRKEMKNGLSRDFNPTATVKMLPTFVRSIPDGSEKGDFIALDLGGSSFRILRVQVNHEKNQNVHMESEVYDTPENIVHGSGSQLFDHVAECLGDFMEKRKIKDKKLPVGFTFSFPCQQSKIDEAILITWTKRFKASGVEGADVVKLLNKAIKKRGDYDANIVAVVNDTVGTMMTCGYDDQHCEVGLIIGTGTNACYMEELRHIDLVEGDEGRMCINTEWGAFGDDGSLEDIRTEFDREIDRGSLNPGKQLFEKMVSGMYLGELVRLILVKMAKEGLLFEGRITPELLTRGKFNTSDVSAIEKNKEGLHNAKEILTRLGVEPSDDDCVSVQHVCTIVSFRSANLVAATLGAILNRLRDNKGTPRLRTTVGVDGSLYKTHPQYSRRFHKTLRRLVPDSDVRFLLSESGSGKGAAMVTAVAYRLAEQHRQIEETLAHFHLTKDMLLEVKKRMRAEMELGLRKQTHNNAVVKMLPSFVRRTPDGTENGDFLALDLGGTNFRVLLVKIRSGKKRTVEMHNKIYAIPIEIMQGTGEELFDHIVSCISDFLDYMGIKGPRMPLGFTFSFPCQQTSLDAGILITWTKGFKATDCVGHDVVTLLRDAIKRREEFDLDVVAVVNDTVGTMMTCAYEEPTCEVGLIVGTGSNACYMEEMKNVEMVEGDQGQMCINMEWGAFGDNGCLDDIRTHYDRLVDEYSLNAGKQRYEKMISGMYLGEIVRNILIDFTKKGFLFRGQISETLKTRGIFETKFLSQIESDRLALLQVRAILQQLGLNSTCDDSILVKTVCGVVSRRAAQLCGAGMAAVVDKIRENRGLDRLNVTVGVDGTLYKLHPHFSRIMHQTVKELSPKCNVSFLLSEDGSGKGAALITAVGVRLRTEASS
# Text: (§1) Subcloning and mutagenesis. Unless noted below, genes were amplified from cDNA prepared from low passage HEK 293T cells using the Ribozol RNA extraction reagent (Amresco) and the iScript Reverse Transcription Supermix kit (Bio-Rad). For the following proteins cDNA clones were used for amplification instead: PFKP (5180268, Dharmacon), HK1 (BC008730, transomic), SIN3A (BC137098, transomic), G6PD (BC000337, transomic) and TGIF1 (BC031268, transomic). Mouse CARM1 in pFLAG-CMV-6c was a kind gift from the Mowen lab (TSRI). NUDT2 was obtained as synthesized gene (IDT). DNA was amplified with custom forward and reverse primers using phusion polymerase (NEB, M0530S), digested with the indicated restriction enzyme and ligated into pFLAG-CMV-6c or pRK5 with the appropriate affinity tag. Lysine mutants were generated using QuikChange site-directed mutagenesis using Phusion® High-Fidelity DNA Polymerase and primers containing the desired mutations and their respective complements. The cloning of TTR and its K35A mutant has been described in Choi et al., “Chemoselective small molecules that covalently modify one lysine in a non-enzyme protein in plasma,” Nat. Chem. Biol. 6, 133-139 (2010). TTR was expressed in E. coli and purified as described. For gel-based experiments 1 μM TTR was added into 1 mg ml^−1 soluble MDA-MB-231 lysate.
# (§2) Recombinant expression of proteins by transient transfection. HEK 293T cells were grown to 50% confluency in 10 ml DMEM supplemented with 10% fetal bovine serum (FBS), penicillin, streptomycin and glutamine in 10 cm tissue culture dishes. 3 μg of DNA was diluted in 500 μL DMEM and 30 μL of PEI (MW 40,000, 1 mg ml^−1, Polysciences) were added. The mixture was incubated at room temperature for 30 min and added dropwise to the cells. Cells were grown for 48 h at 37° C. with 5% CO2. Cells were washed with cold PBS, scraped with cold PBS and cell pellets were isolated by centrifugation (1,400 g, 3 min, 4° C.), and stored at −80° C. until use. Cell pellets were resuspended in PBS, lysed by sonication and fractionated (100,000 g, 45 min) to yield soluble and membrane fractions. The soluble fraction was adjusted to a final protein concentration of 1 mg ml^−1 for gel-based ABPP experiments.
# (§3) Direct labeling of recombinantly expressed proteins by gel-based ABPP. 50 μL of soluble HEK 293T proteome (1 mg ml^−1) expressing the respective protein (WT or KR mutant) or transfected with an empty vector were treated with 10 μM of the indicated probe for 1 h at room temperature. The samples were analyzed as described in the previous section. For quantification of relative labeling of the different protein variants, the intensity of labeling was determined by quantifying the integrated optical intensity of the bands using ImageLab 5.2.1 software (BioRad).
# GSTO1 = molecular target: T2, GSTO1 (Homo sapiens, UniProt P78417); experiment: as above; format: binding; conditions: GSTO1 K57, KR mutant; 10 μM probe, 1 h
# T2 construct: expressed in transfected cells; host or cells: HEK 293T
# T2 sequence (P78417 1-241): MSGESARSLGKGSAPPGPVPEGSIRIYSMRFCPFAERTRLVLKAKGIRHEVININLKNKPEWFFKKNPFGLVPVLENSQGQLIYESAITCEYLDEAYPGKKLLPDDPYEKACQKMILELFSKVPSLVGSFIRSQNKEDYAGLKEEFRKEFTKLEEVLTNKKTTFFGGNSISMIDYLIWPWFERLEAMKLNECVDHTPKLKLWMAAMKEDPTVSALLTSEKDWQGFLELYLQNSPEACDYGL
# Text: as §1, §2, §3
Compound,labeling of WT vs mutant protein by probe (HK1),labeling of WT vs mutant protein by probe (GSTO1)
"C#CCCC(=O)Oc1c(F)c(F)c(S(=O)(=O)[O-])c(F)c1F.[Na+] [probe 1, reference compound]",PD (the WT labeled more than the mutant (>2x difference quantified)),PD (the WT labeled more than the mutant (>2x difference quantified))
"C#CCCC(=O)Oc1c(F)c(F)c(F)c(F)c1F [probe 6, Pentafluorophenyl 4-pentynoate]",HD (the WT labeled more than the mutant (>4x difference quantified)),ND (the WT did not label more than the mutant (<2x difference quantified))
"C#Cc1ccc(C(=O)Oc2c(F)c(F)cc(F)c2F)cc1 [probe 12, 2,3,5,6-Tetrafluorophenyl 4-ethynylbenzoate]",ND (the WT did not label more than the mutant (<2x difference quantified)),ND (the WT did not label more than the mutant (<2x difference quantified))
"C#Cc1ccc(C(=O)Oc2c(F)c(F)c(F)c(F)c2F)cc1 [probe 13, Pentafluorophenyl 4-ethynylbenzoate]",ND (the WT did not label more than the mutant (<2x difference quantified)),ND (the WT did not label more than the mutant (<2x difference quantified))
"Cc1cc(C)n2c1C=C1C=CC(CCC(=O)Oc3c(F)c(F)c(S(=O)(=O)[O-])c(F)c3F)=[N+]1[B-]2(F)F.[Na+] [probe 18, reference compound]",ND (the WT did not label more than the mutant (<2x difference quantified)),ND (the WT did not label more than the mutant (<2x difference quantified))
